{"source": "paper PMC10458893", "about": "“Design of Protegrin-1 Analogs with Improved Antibacterial Selectivity” (Pharmaceutics, 2023)", "key": {"[1]": {"test_system": "freshly isolated human erythrocytes (hRBCs)", "test": "Hemolysis assay (hemoglobin release)", "format": "cell-based", "conditions": "red cells of human, 64", "source_text": "To assess the hemolytic activity of the compounds, freshly isolated human erythrocytes (hRBCs) were used according to the methodology described in a previous study. Melittin was used as a positive peptide control that induces significant hemolysis. Isotonic phosphate buffer (PBS) served as a negative control, while 0.1% Triton X-100 solution was used as a control for complete hemolysis."}, "[2]": {"test_system": "human keratinocyte cell line (HaCaT)", "test": "Cytotoxicity MTT assay", "format": "cell-based", "conditions": "18 h, 128", "experimental": "In order to evaluate the cytotoxicity of the peptides against a human keratinocyte cell line (HaCaT, Cat. No. 300493) (Cell Lines Service, Köln, Germany), the colorimetric 3-(4,5-dimethylthiazol-2-yl)-2,5-diphenyltetrazolium bromide (MTT) dye reduction assay was performed, as described in a previous publication. Wells containing no peptide were used as a 100% survival control. Each peptide was tested in two separate experiments to ensure the reliability of the results."}, "[3]": {"test_system": "M. luteus B-1314", "format": "cell-based, Micrococcus luteus", "conditions": "B-1314, 24 h", "experimental": "(§1) The antimicrobial activity of the peptides was determined using two-fold serial dilutions in sterile 96-well flat-bottom polystyrene microplates (Eppendorf, Hamburg, Germany) (Cat. No. 0030730011), as previously described. The following strains of bacteria were used: E. coli ATCC 25922, E. coli ML35p (ATCC collection), E. coli BW 25113 (Keio collection), Pseudomonas aeruginosa PAO1 (ATCC collection), P. aeruginosa ATCC 27853, Klebsiella pneumoniae ATCC 700603, Staphylococcus aureus 209P (ATCC collection), S. aureus ATCC 29213, and Micrococcus luteus B-1314 (VKM collection). Acinetobacter baumannii (strain XDR CI 2675) was provided by the I.M. Sechenov First Moscow State Medical University hospital. After a 24 h incubation period, the metabolic activity of the bacteria was assessed by adding 20 µL of a redox indicator, resazurin (Sigma-Aldrich, St. Louis, MO, USA), at a concentration of 0.1 mg/mL, to the wells. The plate was then incubated for a further two hours. The minimum inhibitory concentration (MIC) was determined as the lowest concentration of the peptide at which no color change in the resazurin indicator was observed. The results were presented as median values, which were determined based on at least three independent experiments carried out in triplicate."}, "[4]": {"test_system": "E. coli ATCC 25922", "format": "cell-based", "conditions": "ATCC 25922, 24 h", "experimental": "as §1"}, "[5]": {"test_system": "E. coli BW 25113", "format": "cell-based", "conditions": "two-fold serial dilutions, 24 h incubation, resazurin read-out; median of at least three independent experiments in triplicate", "experimental": "as §1"}, "[6]": {"test_system": "Acinetobacter baumannii (strain XDR CI 2675)", "format": "cell-based", "experimental": "as §1"}, "[7]": {"test_system": "all the test strains", "format": "cell-based", "conditions": "geometric mean over the 10 test strains", "experimental": "as §1"}, "[8]": {"test_system": "E. coli ML35p", "format": "cell-based", "experimental": "as §1"}, "[9]": {"test_system": "P. aeruginosa PAO1", "format": "cell-based, Pseudomonas aeruginosa", "conditions": "PAO1, 24 h", "experimental": "as §1"}, "[10]": {"test_system": "P. aeruginosa ATCC 27853", "format": "cell-based, Pseudomonas aeruginosa", "conditions": "ATCC 27853, 24 h", "experimental": "as §1"}, "[11]": {"test_system": "K. pneumoniae ATCC 700603", "format": "cell-based, Klebsiella pneumoniae", "conditions": "ATCC 700603, 24 h", "experimental": "as §1"}, "[12]": {"test_system": "S. aureus 209P", "format": "cell-based, Staphylococcus aureus", "conditions": "24 h", "experimental": "as §1"}, "[13]": {"test_system": "S. aureus ATCC 29213", "format": "cell-based, Staphylococcus aureus", "conditions": "ATCC 29213, 24 h", "experimental": "as §1"}, "[14]": {"test_system": "E. coli ATCC 25922", "test": "Systemic septicemia infection mice model", "format": "in vivo", "conditions": "BALB/c mice n = 5, i.p. E. coli ATCC 25922 10^6 CFU with mucin, 7 days", "experimental": "Experiments were performed with male and female 8–10-week-old BALB/c mice (22–24 g, “Andreevka” laboratory animal nursery FMBA, Russia) according to the previously described method. Briefly, a total of 3 groups of 5 mice per group were infected by intraperitoneal (i.p.) injection of the bacterial inoculum (E. coli ATCC 25922), 10^6 colony forming units (CFU) per animal, in the presence of mucin. All the animals received two i.p. injections: 1 h and 4 h after bacterial challenge. The first group received ciprofloxacin (Sigma-Aldrich, St. Louis, MO, USA) as a positive control at a dose of 10 mg/kg per injection. The second group received peptide [V16R] at a dose of 5 mg/kg per injection. The third group received PBS as a vehicle control. Animals were monitored for 7 days post-infection. All the surviving mice were euthanized by CO2 asphyxiation. The spleen was aseptically removed, homogenized, serially diluted, and plated on Endo agar to detect CFU in a sample."}}, "note": "Like-named read-outs stand apart in the source and are kept apart here. Positions of bridges follow the written chain, without caps; N, C: chain ends. Residues, ends and D or L forms follow the SMILES beside them."}
{"smiles": "CC(C)C[C@H](NC(=O)[C@H](CCCNC(=N)N)NC(=O)CNC(=O)CNC(=O)[C@@H](N)CCCNC(=N)N)C(=O)N[C@H]1CSSC[C@@H](C(=O)N[C@@H](C)C(=O)NCC(=O)N[C@@H](CCCNC(=N)N)C(=O)O)NC(=O)[C@H](C(C)C)NC(=O)[C@@H]2CSSC[C@H](NC(=O)[C@H](Cc3ccc(O)cc3)NC1=O)C(=O)N[C@@H](CCCNC(=N)N)C(=O)N[C@@H](CCCNC(=N)N)C(=O)N[C@@H](CCCNC(=N)N)C(=O)N[C@@H](Cc1ccccc1)C(=O)N2", "note": "[[V16A]] (H-RGGRLCYCRRRFCVCAGR-OH; disulfide 6-15, 8-13; N-terminus and C-terminus assumed)", "values": [{"measurement": "Hemolytic activity, % (64 μM)", "setting": "[1]", "value": "47.8 (±11.96) %"}, {"measurement": "Cell Viability, % (128 μM)", "setting": "[2]", "value": "8.0 (± 5.35) %"}, {"measurement": "MIC, M. luteus B-1314", "setting": "[3]", "value": 0.5, "unit": "µM"}, {"measurement": "MIC, E. coli ATCC 25922", "setting": "[4]", "value": 0.5, "unit": "µM"}, {"measurement": "MIC, E. coli BW 25113", "setting": "[5]", "value": 0.25, "unit": "µM"}, {"measurement": "MIC, A. baumannii", "setting": "[6]; strain XDR CI 2675, 24 h", "value": 0.125, "unit": "µM"}, {"measurement": "MIC (GM), geometric mean of the peptide's MICs against all the test strains", "setting": "[7]", "value": 0.4, "unit": "µM"}, {"measurement": "MIC, E. coli ML35p", "setting": "[8]; ML35p, 24 h", "value": 0.125, "unit": "µM"}, {"measurement": "MIC, P. aeruginosa PAO1", "setting": "[9]", "value": 0.25, "unit": "µM"}, {"measurement": "MIC, P. aeruginosa ATCC 27853", "setting": "[10]", "value": 0.5, "unit": "µM"}, {"measurement": "MIC, K. pneumoniae ATCC 700603", "setting": "[11]", "value": 1, "unit": "µM"}, {"measurement": "MIC, S. aureus 209P", "setting": "[12]", "value": 1, "unit": "µM"}, {"measurement": "MIC, S. aureus ATCC 29213", "setting": "[13]", "value": 1, "unit": "µM"}]}
{"smiles": "CC(C)C[C@H](NC(=O)[C@H](CCCNC(=N)N)NC(=O)CNC(=O)CNC(=O)[C@@H](N)CCCNC(=N)N)C(=O)N[C@H]1CSSC[C@@H](C(=O)N[C@@H](CCCNC(=N)N)C(=O)NCC(=O)N[C@@H](CCCNC(=N)N)C(=O)O)NC(=O)[C@H](C(C)C)NC(=O)[C@@H]2CSSC[C@H](NC(=O)[C@H](Cc3ccc(O)cc3)NC1=O)C(=O)N[C@@H](CCCNC(=N)N)C(=O)N[C@@H](CCCNC(=N)N)C(=O)N[C@@H](CCCNC(=N)N)C(=O)N[C@@H](Cc1ccccc1)C(=O)N2", "note": "[[V16R]] (H-RGGRLCYCRRRFCVCRGR-OH; disulfide 6-15, 8-13)", "values": [{"measurement": "Hemolytic activity, % (64 μM)", "setting": "[1]", "value": "2.8 (±0.2) %"}, {"measurement": "Cell Viability, % (128 μM)", "setting": "[2]", "value": "80.0 (± 8.62) %"}, {"measurement": "MIC, M. luteus B-1314", "setting": "[3]", "value": 1, "unit": "µM"}, {"measurement": "MIC, E. coli ATCC 25922", "setting": "[4]", "value": 0.5, "unit": "µM"}, {"measurement": "MIC, E. coli BW 25113", "setting": "[5]", "value": 0.25, "unit": "µM"}, {"measurement": "MIC, A. baumannii", "setting": "[6]; strain XDR CI 2675, 24 h", "value": 0.125, "unit": "µM"}, {"measurement": "MIC (GM), geometric mean of the peptide's MICs against all the test strains", "setting": "[7]", "value": 0.8, "unit": "µM"}, {"measurement": "MIC, E. coli ML35p", "setting": "[8]; ML35p, 24 h", "value": 0.25, "unit": "µM"}, {"measurement": "MIC, P. aeruginosa PAO1", "setting": "[9]", "value": 1, "unit": "µM"}, {"measurement": "MIC, P. aeruginosa ATCC 27853", "setting": "[10]", "value": 0.5, "unit": "µM"}, {"measurement": "Deaths of mice", "setting": "[14]; 5 mg/kg i.p. at 1 h and 4 h", "value": "two out of five"}, {"measurement": "Therapeutic efficacy (survival)", "setting": "[14]; 5 mg/kg i.p. at 1 h and 4 h, chloride form", "value": 60, "unit": "%"}, {"measurement": "MIC, K. pneumoniae ATCC 700603", "setting": "[11]", "value": 4, "unit": "µM"}, {"measurement": "MIC, S. aureus 209P", "setting": "[12]", "value": 4, "unit": "µM"}, {"measurement": "MIC, S. aureus ATCC 29213", "setting": "[13]", "value": 4, "unit": "µM"}]}
{"smiles": "CC(C)C[C@H](NC(=O)[C@H](CCCNC(=N)N)NC(=O)CNC(=O)CNC(=O)[C@@H](N)CCCNC(=N)N)C(=O)N[C@H]1CSSC[C@@H](C(=O)N[C@H](C(=O)NCC(=O)N[C@@H](CCCNC(=N)N)C(=O)O)C(C)C)NC(=O)[C@H](C(C)C)NC(=O)[C@@H]2CSSC[C@H](NC(=O)[C@H](CCCNC(=N)N)NC1=O)C(=O)N[C@@H](CCCNC(=N)N)C(=O)N[C@@H](CCCNC(=N)N)C(=O)N[C@@H](CCCNC(=N)N)C(=O)N[C@@H](Cc1ccccc1)C(=O)N2", "note": "[[Y7R]] (H-RGGRLCRCRRRFCVCVGR-OH; disulfide 6-15, 8-13; N-terminus and C-terminus assumed)", "values": [{"measurement": "Hemolytic activity, % (64 μM)", "setting": "[1]", "value": "2.1 (±0.53) %"}, {"measurement": "Cell Viability, % (128 μM)", "setting": "[2]", "value": "67.6 (± 8.68) %"}, {"measurement": "MIC, M. luteus B-1314", "setting": "[3]", "value": 2, "unit": "µM"}, {"measurement": "MIC, E. coli ATCC 25922", "setting": "[4]", "value": 0.5, "unit": "µM"}, {"measurement": "MIC, E. coli BW 25113", "setting": "[5]", "value": 0.5, "unit": "µM"}, {"measurement": "MIC, A. baumannii", "setting": "[6]; strain XDR CI 2675, two-fold serial dilutions, 24 h incubation, resazurin read-out, median of at least three independent experiments in triplicate", "value": 0.5, "unit": "µM"}, {"measurement": "MIC (GM), geometric mean of the peptide's MICs against all the test strains", "setting": "[7]", "value": 2.5, "unit": "µM"}, {"measurement": "MIC, E. coli ML35p", "setting": "[8]; two-fold serial dilutions, 24 h incubation, resazurin read-out, median of at least three independent experiments in triplicate", "value": 0.5, "unit": "µM"}, {"measurement": "MIC, P. aeruginosa PAO1", "setting": "[9]", "value": 8, "unit": "µM"}, {"measurement": "MIC, P. aeruginosa ATCC 27853", "setting": "[10]", "value": 4, "unit": "µM"}, {"measurement": "MIC, K. pneumoniae ATCC 700603", "setting": "[11]", "value": 8, "unit": "µM"}, {"measurement": "MIC, S. aureus 209P", "setting": "[12]", "value": 16, "unit": "µM"}, {"measurement": "MIC, S. aureus ATCC 29213", "setting": "[13]", "value": 16, "unit": "µM"}]}
{"smiles": "O=C(O)c1cn(C2CC2)c2cc(N3CCNCC3)c(F)cc2c1=O", "note": "[ciprofloxacin, reference compound]", "values": [{"measurement": "Survival of mice", "setting": "[14]; 10 mg/kg i.p. at 1 h and 4 h", "value": "survival of all mice"}]}
